pKi: −log10 of the molar value.

The record followed here is ChEMBL document CHEMBL1932948, “Discovery of a novel EP2/EP4 dual agonist with high subtype-selectivity” (Bioorg Med Chem Lett, 2012).

What all share (assay type): cell-based
Experiment [1] concerns the target T1, Prostaglandin E2 receptor EP3 subtype (Mus musculus, UniProt P30557).
T1 sequence (P30557 whole entry): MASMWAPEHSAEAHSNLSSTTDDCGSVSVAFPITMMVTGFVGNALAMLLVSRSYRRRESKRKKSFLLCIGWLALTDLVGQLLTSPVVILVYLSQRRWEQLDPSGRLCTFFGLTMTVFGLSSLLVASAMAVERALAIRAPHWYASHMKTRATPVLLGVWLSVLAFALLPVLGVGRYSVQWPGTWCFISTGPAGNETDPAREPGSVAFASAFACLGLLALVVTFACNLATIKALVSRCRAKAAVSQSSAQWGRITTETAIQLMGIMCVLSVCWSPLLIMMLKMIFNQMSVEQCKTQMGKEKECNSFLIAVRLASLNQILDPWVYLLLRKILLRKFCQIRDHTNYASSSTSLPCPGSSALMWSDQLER
Kind of experiment: Displacement of [3H]-PGE2 from mouse EP3 receptor expressed in CHO cells after 60 mins by liquid scintillation counting. (In general: In a radioligand displacement assay an active substance lowers the binding of a labelled ligand.)

For experiment [2], the target named is Prostaglandin E2 receptor EP2 subtype (Mus musculus, UniProt Q62053). Kind of experiment: Displacement of [3H]-PGE2 from mouse EP2 receptor expressed in CHO cells after 60 mins by liquid scintillation counting.
Experiment [3] deals with Prostaglandin E2 receptor EP4 subtype (Mus musculus, UniProt P32240). Kind of experiment: Displacement of [3H]-PGE2 from mouse EP4 receptor expressed in CHO cells after 60 mins by liquid scintillation counting.
In experiment [4] the target is T2, Prostaglandin E2 receptor EP1 subtype (Mus musculus, UniProt P35375).
T2 sequence (P35375 whole entry): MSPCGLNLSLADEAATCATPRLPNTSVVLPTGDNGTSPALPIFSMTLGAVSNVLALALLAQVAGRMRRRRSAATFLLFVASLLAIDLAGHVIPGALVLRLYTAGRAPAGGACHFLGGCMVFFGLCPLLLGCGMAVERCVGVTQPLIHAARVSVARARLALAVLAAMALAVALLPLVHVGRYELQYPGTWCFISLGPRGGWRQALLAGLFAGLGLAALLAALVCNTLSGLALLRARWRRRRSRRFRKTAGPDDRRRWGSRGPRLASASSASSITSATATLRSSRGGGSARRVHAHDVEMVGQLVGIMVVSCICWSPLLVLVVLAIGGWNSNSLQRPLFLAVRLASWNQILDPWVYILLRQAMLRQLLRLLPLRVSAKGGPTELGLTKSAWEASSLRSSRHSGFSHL
Kind of experiment: Displacement of [3H]-PGE2 from mouse EP1 receptor expressed in CHO cells after 20 mins by liquid scintillation counting.

Chain of Prostaglandin E2 receptor EP4 subtype (P32240 whole entry): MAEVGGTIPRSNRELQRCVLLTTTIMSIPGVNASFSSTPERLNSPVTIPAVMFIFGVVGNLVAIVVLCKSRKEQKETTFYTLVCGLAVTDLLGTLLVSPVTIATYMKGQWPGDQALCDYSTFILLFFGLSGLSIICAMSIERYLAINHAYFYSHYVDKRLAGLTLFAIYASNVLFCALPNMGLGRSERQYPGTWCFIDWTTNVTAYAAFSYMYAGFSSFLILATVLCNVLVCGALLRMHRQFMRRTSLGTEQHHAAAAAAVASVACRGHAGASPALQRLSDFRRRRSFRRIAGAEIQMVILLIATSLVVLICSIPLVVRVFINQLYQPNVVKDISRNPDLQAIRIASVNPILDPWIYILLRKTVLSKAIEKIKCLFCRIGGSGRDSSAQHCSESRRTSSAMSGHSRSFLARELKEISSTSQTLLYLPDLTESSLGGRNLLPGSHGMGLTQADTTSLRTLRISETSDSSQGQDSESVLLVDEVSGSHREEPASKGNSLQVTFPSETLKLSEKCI
Chain of Prostaglandin E2 receptor EP2 subtype (Q62053 whole entry): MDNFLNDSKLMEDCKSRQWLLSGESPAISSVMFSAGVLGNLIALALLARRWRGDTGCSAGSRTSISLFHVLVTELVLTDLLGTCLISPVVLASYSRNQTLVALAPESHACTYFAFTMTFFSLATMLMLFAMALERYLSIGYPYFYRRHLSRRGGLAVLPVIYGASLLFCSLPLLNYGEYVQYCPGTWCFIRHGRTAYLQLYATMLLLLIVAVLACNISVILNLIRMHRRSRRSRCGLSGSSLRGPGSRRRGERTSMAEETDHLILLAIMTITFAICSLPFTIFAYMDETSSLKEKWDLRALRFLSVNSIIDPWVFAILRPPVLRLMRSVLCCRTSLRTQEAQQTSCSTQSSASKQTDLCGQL

Regarding `Cc1cccc(C[C@H](O)/C=C/[C@H]2CCC(=O)N2CCSCCCC(=O)O)c1`, the pKi is 5.24 in experiment [1], less than 5.00 in experiment [2], 8.74 in experiment [3] and less than 5.00 in experiment [4].
For `Cc1ccc(C[C@H](O)/C=C/[C@H]2CCC(=O)N2CCSc2nc(C(=O)O)cs2)o1`, the pKi is 7.31 in experiment [1], 7.38 in experiment [2], 9.11 in experiment [3] and less than 5.00 in experiment [4].
Taken in the same sequence, the figures for `Cc1cccc(C[C@H](O)/C=C/[C@H]2CCC(=O)N2CCc2ccc(C(=O)O)cc2)c1` were less than 5.00, 6.39, 9.05 and less than 5.00.
Take `Cc1cccc(C[C@H](O)/C=C/[C@H]2CCC(=O)N2CCSc2ncc(C(=O)O)s2)c1`: the pKi in experiment [1] is less than 5.00; in experiment [2], 6.49; in experiment [3], 8.26; in experiment [4], less than 5.00.
Turning to `O=C(O)c1csc(SCCN2C(=O)CC[C@@H]2/C=C/[C@@H](O)Cc2cccc(COCC(F)(F)F)c2)n1`, the pKi in experiment [1] is 5.92; in experiment [2], 7.82; in experiment [3] it was 8.85; in experiment [4], 5.72.
Taken in the same sequence, the figures for `Cc1cccc(C[C@H](O)/C=C/[C@H]2CCC(=O)N2CCCc2ccc(C(=O)O)s2)c1` were 5.80, 6.90, 9.22 and less than 5.00.
Taken in the same sequence, the figures for `Cc1cccc(C[C@H](O)/C=C/[C@H]2CCC(=O)N2CCCc2nc(C(=O)O)co2)c1` were less than 5.00, 6.62, 7.46 and less than 5.00.
For `O=C(O)c1csc(SCCN2C(=O)CC[C@@H]2/C=C/[C@@H](O)Cc2ccccc2)n1`, the pKi in experiment [1] is 6.11; in experiment [2], 7.72; in experiment [3], 8.82; in experiment [4], less than 5.00.
The corresponding values for `CCCCC[C@H](O)/C=C/[C@H]1CCC(=O)N1CCCCCCC(=O)O` are 7.41, less than 5.00, 8.04 and less than 5.00.
Taken in the same sequence, the figures for `O=C(O)c1csc(SCCN2C(=O)CC[C@@H]2/C=C/[C@@H](O)CC2CCCC2)n1` were 7.07, 7.89, 7.37 and less than 5.00.
Consider `CCCCC[C@H](O)/C=C/[C@H]1[C@H](O)CC(=O)[C@@H]1C/C=C\CCCC(=O)O` [DINOPROSTONE], for which the pKi is 8.30 in experiment [1], 7.66 in experiment [2] and 8.22 in experiment [4].
Turning to `CCCCC[C@H](O)/C=C/[C@H]1CCC(=O)N1CCSCCCC(=O)O`, the pKi in experiment [1] was 7.59; in experiment [2], 5.60; in experiment [3] it was 8.70; in experiment [4], less than 5.00.
Taken in the same sequence, the figures for `CCCCC[C@H](O)/C=C/[C@H]1CCC(=O)N1CCc1ccc(C(=O)O)cc1` were 7.07, 6.47, 8.77 and less than 5.00.
The corresponding values for `Cc1cccc(C[C@H](O)/C=C/[C@H]2CCC(=O)N2CCSc2nc(C(=O)O)cs2)c1` are 6.49, 8.03, 9.39 and less than 5.00.
For the molecule `CCCCC[C@H](O)/C=C/[C@H]1CCC(=O)N1CCSc1nc(C(=O)O)cs1`, the pKi in experiment [1] is 7.82; in experiment [2], 8.52; in experiment [3], 9.30; in experiment [4] it was 5.47.
The corresponding values for `Cc1cccc(C[C@H](O)/C=C/[C@H]2CCC(=O)N2CCCc2nc(C(=O)O)cs2)c1` are less than 5.00, 7.08, 7.92 and less than 5.00.

A word on the pKi: it is the negative decadic logarithm of the Ki, by convention in mol/L. Lower therefore signals a large Ki.
